{"source": "paper PMC11434129", "about": "“Mechanistic Insights from the Crystal Structure and Computational Analysis of the Radical SAM Deaminase DesII” (Advanced Science, 2024)", "key": {"DesII [1]": {"molecular_target": "T1, DesII (Streptomyces venezuelae, UniProt Q9ZGH1)", "T1 construct": "C-terminal His6-tag kept; selenomethionine derivative used for phasing; [Fe4S4] cluster; N-terminal 7-9 residues disordered in crystal", "assay": "X-ray crystal structure, […] Å", "type": "binding"}, "DesII [2]": {"molecular_target": "T1, DesII", "assay": "deaminase activity assay", "type": "biochemical", "settings": "deamination"}, "DesII [3]": {"molecular_target": "T2, DesII (Streptomyces venezuelae, UniProt Q9ZGH1, E408Q)", "T2 construct": "C-terminal His6-tag kept; selenomethionine derivative used for phasing; [Fe4S4] cluster; N-terminal 7-9 residues disordered in crystal", "T2 sequence (Q9ZGH1 whole entry E408Q, the tested form may be a part)": "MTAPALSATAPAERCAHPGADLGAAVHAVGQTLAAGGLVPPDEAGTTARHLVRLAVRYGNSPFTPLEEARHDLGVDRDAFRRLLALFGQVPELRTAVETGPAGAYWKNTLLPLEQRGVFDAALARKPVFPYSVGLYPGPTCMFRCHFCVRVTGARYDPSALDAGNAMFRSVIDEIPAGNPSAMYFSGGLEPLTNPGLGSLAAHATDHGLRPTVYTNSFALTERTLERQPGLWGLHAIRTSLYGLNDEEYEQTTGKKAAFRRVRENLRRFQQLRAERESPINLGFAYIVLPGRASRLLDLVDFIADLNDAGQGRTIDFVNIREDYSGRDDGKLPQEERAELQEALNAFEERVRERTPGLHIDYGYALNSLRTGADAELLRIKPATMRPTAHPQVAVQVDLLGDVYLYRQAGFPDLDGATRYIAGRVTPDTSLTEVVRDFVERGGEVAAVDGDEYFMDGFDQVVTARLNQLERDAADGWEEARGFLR", "assay": "deaminase activity assay", "type": "biochemical", "settings": "deamination"}, "DesII [4]": {"molecular_target": "T3, DesII (Streptomyces venezuelae, UniProt Q9ZGH1, E408A)", "T3 construct": "C-terminal His6-tag kept; selenomethionine derivative used for phasing; [Fe4S4] cluster; N-terminal 7-9 residues disordered in crystal", "T3 sequence (Q9ZGH1 whole entry E408A, the tested form may be a part)": "as the sequence (Q9ZGH1 whole entry E408Q, the tested form may be a part) above, with Q408A counted along it", "assay": "deaminase activity assay", "type": "biochemical", "settings": "deamination"}, "[5]": {"molecular_target": "T4, DesII (second DesII expression construct) (Streptomyces venezuelae, UniProt Q9ZGH1)", "T4 construct": "pSJ5 vector, TrxA fusion, His8-tag and TEV site; N-terminal tag removed by TEV; [Fe4S4] cluster; loop D323-E337 disordered", "T4 sequence (Q9ZGH1 1-485)": "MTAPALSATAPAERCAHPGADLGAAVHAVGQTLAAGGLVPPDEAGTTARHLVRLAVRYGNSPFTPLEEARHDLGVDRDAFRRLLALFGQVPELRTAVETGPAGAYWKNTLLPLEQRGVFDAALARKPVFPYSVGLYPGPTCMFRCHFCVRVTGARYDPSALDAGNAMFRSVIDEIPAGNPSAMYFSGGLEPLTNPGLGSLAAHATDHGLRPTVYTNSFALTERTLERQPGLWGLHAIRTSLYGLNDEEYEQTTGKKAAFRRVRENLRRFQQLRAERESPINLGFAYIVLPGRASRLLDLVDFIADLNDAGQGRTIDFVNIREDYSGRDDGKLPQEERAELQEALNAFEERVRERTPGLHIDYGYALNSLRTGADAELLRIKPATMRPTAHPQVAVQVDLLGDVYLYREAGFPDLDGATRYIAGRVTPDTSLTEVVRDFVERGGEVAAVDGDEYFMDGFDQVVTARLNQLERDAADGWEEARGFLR", "assay": "X-ray crystal structure, […] Å", "type": "binding", "settings": "coordinates fourth iron of [Fe4S4] cluster in one monomer; pH 6.0 crystals"}}, "data": [{"smiles": "C[S+](CC[C@H](N)C(=O)O)C[C@H]1O[C@@H](n2cnc3c(N)ncnc32)[C@H](O)[C@@H]1O", "note": "(stereo partly drawn) [SAM, S-adenosyl-L-methionine]", "values": [{"measurement": "X-ray crystal structure, 2.33 Å", "setting": "DesII [1]; coordinated to [Fe4S4] cluster, chains a and c", "result": "A single molecule of SAM was found coordinated to the [Fe4S4] cluster in chains a"}]}, {"smiles": "Cc1cn([C@H]2C[C@H](O)[C@@H](COP(=O)(O)OP(=O)(O)O[C@H]3O[C@H](C)[C@@H](N)[C@H](O)[C@H]3O)O2)c(=O)[nH]c1=O", "note": "[compound 1, TDP-4-amino-4,6-dideoxy-D-glucose]", "values": [{"measurement": "deaminase activity assay", "setting": "DesII [2]", "result": "found to retain deaminase activity comparable to that of wildtype enzyme"}, {"measurement": "deaminase activity assay", "setting": "DesII [3]", "result": "E408A and E408Q mutants were both constructed and found to retain deaminase activity"}, {"measurement": "deaminase activity assay", "setting": "DesII [4]", "result": "E408A and E408Q mutants were both constructed and found to retain deaminase activity"}]}, {"smiles": "CSCC[C@H](N)C(=O)O", "note": "[Met, methionine]", "values": [{"measurement": "X-ray crystal structure, 2.04 Å", "setting": "[5]", "result": "coordinated with a water molecule and the other with methionine"}, {"measurement": "X-ray crystal structure, 2.33 Å", "setting": "DesII [1]; active sites of chains b and d", "result": "with methionine bound in the active sites of chains b and d"}]}]}
